Tests used:
[1] = tested on: hTERT-BJ1; test: Hoechst-based 2D-cell viability assay, hTERT-BJ1 monolayer; parameters: species or system human; conditions: for toxicity in the non-tumoral cell line hTERT-BJ1: up to the concentration of 90 μM
Source text: As used in the tables, “IC50 (MCF7 mammosphere)” refers to the half maximal inhibitory concentration in the 3D-mammosphere assay, using the ER+ breast cancer cell line, MCF7. The term “IC50 (MCF7 monolayer)” refers to the half maximal inhibitory concentration in the 2D-cell viability assay, using the ER+ breast cancer cell line, MCF7. The term “IC50 (BJ1 monolayer)” refers to the half maximal inhibitory concentration in the 2D-cell viability assay, using the immortalized non-tumoral fibroblast cell line, hTERT-BJ1. The term “SI (mammosphere/monolayer MCF7)” refers to the mammosphere selectivity index, a ratio between IC50 values comparing the biological activity in the 3D and 2D assays against MCF7. The term “SI (BJ1/MCF7 monolayer)” refers to the cancer selectivity index, a ratio between IC50 values comparing the biological activity in the cell viability assays against MCF7 and hTERT-BJ1. With respect to cell culture and reagents, the human breast adenocarcinoma cell line (MCF-7) was from the American Type Culture Collection (ATCC). hTERT-BJ1 cells were from Clontech, Inc. MCF-7 and hTERT-BJ1 cells were grown in DMEM supplemented with 10% fetal bovine serum, GlutaMAX and 1% penicillin-streptomycin and incubated at 37C in a humidified 5% CO2 incubator. The medium was changed 2-3 times/week. A Hoechst-based viability assay was used to characterize the selectivity of compounds according to the present approach, for the preferential targeting of cancer cells. Briefly, MCF7 cell monolayers were treated with a compound at concentrations ranging from 1 μM to 100 μM, for a period of one day. Cell viability was assessed using Hoechst 33342, a nuclear dye that stains DNA in live cells. The viability of normal human fibroblasts (hTERT-BJ1) treated with the compounds described herein was also assessed in parallel. Quantitation was performed with a plate-reader.

[2] = tested on: MCF7; test: Mammosphere formation assay (3D-mammosphere assay); format: cell-based, human; conditions: for SI (mammosphere/monolayer MCF7): mammosphere selectivity index, ratio between IC50 values in the 3D and 2D assays against MCF7; for inhibition of MCF7 cells in the mammosphere assay compared to parent compound: concentrations from 1 μM to 100 μM
Source text: As used in the tables, “IC50 (MCF7 mammosphere)” refers to the half maximal inhibitory concentration in the 3D-mammosphere assay, using the ER+ breast cancer cell line, MCF7. The term “IC50 (MCF7 monolayer)” refers to the half maximal inhibitory concentration in the 2D-cell viability assay, using the ER+ breast cancer cell line, MCF7. The term “IC50 (BJ1 monolayer)” refers to the half maximal inhibitory concentration in the 2D-cell viability assay, using the immortalized non-tumoral fibroblast cell line, hTERT-BJ1. The term “SI (mammosphere/monolayer MCF7)” refers to the mammosphere selectivity index, a ratio between IC50 values comparing the biological activity in the 3D and 2D assays against MCF7. The term “SI (BJ1/MCF7 monolayer)” refers to the cancer selectivity index, a ratio between IC50 values comparing the biological activity in the cell viability assays against MCF7 and hTERT-BJ1.
FIGS. 1-3 are dose-response curves for various compounds described herein, using the mammosphere assay. The assay was performed using the MCF7 cell line. The curves are plotted as a mean of two independent experiments, and the standard deviation for each point is represented by vertical bars. The inhibition percentage is shown as a function of the log of the concentration (μM). […] Similar effects are expected for compounds having the general formula [1D].
With respect to cell culture and reagents, the human breast adenocarcinoma cell line (MCF-7) was from the American Type Culture Collection (ATCC). hTERT-BJ1 cells were from Clontech, Inc. MCF-7 and hTERT-BJ1 cells were grown in DMEM supplemented with 10% fetal bovine serum, GlutaMAX and 1% penicillin-streptomycin and incubated at 37C in a humidified 5% CO2 incubator. The medium was changed 2-3 times/week.
Mammosphere formation assay: A single cell suspension was prepared using enzymatic (lx Trypsin-EDTA, Sigma Aldrich, cat. #T3924), and manual disaggregation (25 gauge needle). Five thousand cells were plated with in mammosphere medium (DMEM-F12/B27/20 ng/ml EGF/PenStrep), under non-adherent conditions, in six wells plates coated with 2-hydroxyethylmethacrylate (poly-HEMA, Sigma, cat. #P3932). Cells were grown for 5 days and maintained in a humidified incubator at 37° C. at an atmospheric pressure in 5% (v/v) carbon dioxide/air. After 5 days, 3D spheroids with a diameter greater than 50 μm were counted using a microscope, fitted with a graticule eye-piece, and the percentage of cells which formed spheroids was calculated and normalized to one (1=100% MFE; mammosphere forming efficiency). Mammosphere assays were performed in triplicate and repeated three times independently.

[3] = tested on: MCF7; test: Hoechst-based 2D-cell viability assay, MCF7 monolayer; parameters: species or system human
Source text: As used in the tables, “IC50 (MCF7 mammosphere)” refers to the half maximal inhibitory concentration in the 3D-mammosphere assay, using the ER+ breast cancer cell line, MCF7. The term “IC50 (MCF7 monolayer)” refers to the half maximal inhibitory concentration in the 2D-cell viability assay, using the ER+ breast cancer cell line, MCF7. The term “IC50 (BJ1 monolayer)” refers to the half maximal inhibitory concentration in the 2D-cell viability assay, using the immortalized non-tumoral fibroblast cell line, hTERT-BJ1. The term “SI (mammosphere/monolayer MCF7)” refers to the mammosphere selectivity index, a ratio between IC50 values comparing the biological activity in the 3D and 2D assays against MCF7. The term “SI (BJ1/MCF7 monolayer)” refers to the cancer selectivity index, a ratio between IC50 values comparing the biological activity in the cell viability assays against MCF7 and hTERT-BJ1. […] Cell viability was assessed using Hoechst 33342, a nuclear dye that stains DNA in live cells. The viability of normal human fibroblasts (hTERT-BJ1) treated with the compounds described herein was also assessed in parallel. Quantitation was performed with a plate-reader.

| SMILES | SI (mammosphere/monolayer MCF7) [2] | toxicity in the non-tumoral cell line hTERT-BJ1 [1] | inhibition of MCF7 cells in the mammosphere assay compared to parent compound [2] | other results |
| --- | --- | --- | --- | --- |
| CCN1CCN(Cc2ccc(Nc3ncc(F)c(-c4cc(F)c5nc(C)n(C(C)C)c5c4)n3)nc2)CC1 [Abemaciclib, N-[5-[(4-ethylpiperazin-1-yl)methyl]pyridin-2-yl]-5-fluoro-4-(7-fluoro-2-methyl-3-propan-2-ylbenzimidazol-5-yl)pyrimidin-2-amine, reference compound] | >250 |  |  | IC50 ([1]; Homo sapiens, Table 3, unit inferred, 2D-cell viability assay, hTERT-BJ1): 30 ± 6 µM |
| CCCCCCCCCCCCCC(=O)N1CCN(c2ccc(Nc3ncc4cc(C(=O)N(C)C)n(C5CCCC5)c4n3)nc2)CC1 [Compound [1C], 7-cyclopentyl-N,N-dimethyl-2-[[5-(4-tetradecanoylpiperazin-1-yl)-2-pyridyl]amino]pyrrolo[2,3-d]pyrimidine-6-carboxamide] |  | non-toxic | remarkably improved inhibition | improvement in potency in the 3D-mammosphere assay compared to the parent compound ([2]; IC50 ratio vs. Ribociclib): 7 fold; potency against MCF7 cells compared to parent compound (dose-response curves, FIG. 4) ([3]; Hoechst staining assay, MCF7, each concentration): more potent |
| CCCCCCCCCCCCCC(=O)N1CCN(c2ccc(Nc3ncc4c(C)c(C(C)=O)c(=O)n(C5CCCC5)c4n3)nc2)CC1 [Compound [2C], 6-acetyl-8-cyclopentyl-5-methyl-2-[[5-(4-tetradecanoylpiperazin-1-yl)-2-pyridyl]amino]pyrido[2,3-d]pyrimidin-7-one] |  | non-toxic | remarkably improved inhibition | toxicity in the 2D-cell viability assay ([3]; MCF7 monolayer, up to a concentration of 30 μM): non-toxic |
| CC(=O)c1c(C)c2cnc(Nc3ccc(N4CCNCC4)cn3)nc2n(C2CCCC2)c1=O [Palbociclib, 6-acetyl-8-cyclopentyl-5-methyl-2-(5-piperazin-1-yl-pyridin-2-ylamino)-8H-pyrido[2,3-d]pyrimidin-7-one, reference compound] | non-selective | non-toxic |  |  |
| CN(C)C(=O)c1cc2cnc(Nc3ccc(N4CCNCC4)cn3)nc2n1C1CCCC1 [Ribociclib, 7-cyclopentyl-N,N-dimethyl-2-[(5-piperazin-1-ylpyridin-2-yl)amino]pyrrolo[2,3-d]pyrimidine-6-carboxamide] |  | non-toxic |  | potency on hTERT-BJ1 compared to Compound [1C] (dose-response curves, FIG. 7) ([1]; Hoechst staining assay, hTERT-BJ1): more potent at most concentrations tested |
